Assay results: ChEMBL document CHEMBL1138603, “New Labdane diterpenes as intestinal alpha-glucosidase inhibitor from antihyperglycemic extract of Hedychium spicatum (Ham. Ex Smith) rhizomes” (Bioorg Med Chem Lett, 2009)
Activity calls are given as the source filed them. The rule behind the calls is not given here.

Tests used:
Rattus norvegicus = species on record: Rattus norvegicus; test: Inhibition of rat intestinal alpha-glucosidase activity at 100 ugmL
[1] = Inhibition of rat intestinal alpha-glucosidase activity

Row | inhibition (Rattus norvegicus) | IC50 [1] | SMILES
1 | 25.7% |  | CC(=O)OC1=C(C)[C@H](/C=C/c2ccoc2)[C@@]2(C)CCCC(C)(C)[C@@H]2C1=O
2 | 55.6% |  | CC1=CC(=O)[C@H]2C(C)(C)CCC[C@]2(C)[C@H]1/C=C/c1ccoc1
3 | 13.5% |  | CC1=C(O)C(=O)[C@H]2C(C)(C)CCC[C@]2(C)[C@H]1/C=C/c1ccoc1
4 | 15.1% |  | CC1(C)CCC[C@]2(C)[C@@H](/C=C/c3ccoc3)C(CO)=CC(=O)[C@@H]12

The remaining lines, values behind:

Row | SMILES | inhibition (Rattus norvegicus) | IC50 [1]
5 | C=C1[C@@H](O)CC2C(C)(C)CCC[C@]2(C)[C@H]1C/C=C1\CCOC1=O (stereo partly specified) | 11.3% | 
6 | C=C1CC[C@H]2C(C)(C)CCC[C@]2(C)[C@H]1C | inactive | 
7 | C[C@H]1O[C@H](O[C@H]2[C@H](O)[C@@H](O)[C@@H](O[C@H]3[C@H](O)[C@@H](O)C(O)O[C@@H]3CO)O[C@@H]2CO)[C@H](O)[C@@H](O)[C@@H]1N[C@H]1C=C(CO)[C@@H](O)[C@H](O)[C@H]1O (stereo partly specified) [ACARBOSE] |  | 23.8 µM
8 | CO[C@@H]1OC(=O)C=C1/C=C/[C@H]1C(C)=CC(=O)[C@H]2C(C)(C)CCC[C@]12C | 54.1% | 
9 | CC1=CC(=O)[C@H]2C(C)(C)CCC[C@]2(C)[C@H]1/C=C/C1=CC(=O)O[C@H]1O [SPICATANOL] | 89.5% | 34.1 µM
10 | CC1=CC(=O)[C@H]2C(C)(C)CCC[C@]2(C)[C@H]1/C=C/C1=CC(=O)OC1 | 35.1% | 
